Values joined by “and” are separate entries in the source; they are usually repeats but may differ in a detail not shown here. Equal values may be shown once.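 In this assay, cells in 96-well plates receive the compound at five concentrations for 48 hours. Endpoints are linearly interpolated between the surrounding concentrations. GI50 = concentration required for 50% inhibition of growth. The concentration for full growth arrest is given as TGI.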

This note sets out measurements from PubChem BioAssay (NCI).

Holding throughout (test): DTP human tumour cell line panel, 48 h
Assay [1] concerns EKVX NSCLC.
The test system of assay [2] is MDA-N.
The test system of assay [3] is OVCAR-3 ovarian.
The test system of assay [4] is OVCAR-5 ovarian.
The test system of assay [5] is PC-3 prostate.
Assay [6] concerns UACC-62 melanoma.
Assay [7] deals with UO-31 renal.
Assay [8] concerns 786-0 renal.
Assay [9] concerns DMS 114 small cell lung.
Assay [10] has as its system DMS 273 small cell lung.
The test system of assay [11] is KM20L2 colon.
Assay [12] concerns SNB-78 CNS.

As a reminder, the TGI is the concentration giving total growth inhibition. With `CCOc1ccc2nc(-c3ccc(O)cc3)sc2c1`, the concentration for total growth inhibition (TGI) in [1] was 55.2 µM; in [2], greater than 100 µM; in [3], greater than 100 µM; in assay [4], greater than 100 µM; in [5] it was greater than 100 µM; in assay [6], greater than 100 µM. The same molecule returned a TGI in [7] greater than 100 µM.
Consider `O=C1OC(c2ccccc2)=N/C1=C\c1cccnc1`, for which the total growth inhibition concentration (TGI) in assay [1], in [3], in assay [4], in assay [5], in assay [6] and in assay [7] was greater than 100 µM in each case.
`C/C(CC/C(C)=N/O)=N\O`: the total growth inhibition concentration (TGI) in [8], in assay [1], in assay [2], in assay [3], in assay [4] and in assay [5] was greater than 100 µM each time. The TGI in assay [6] and in [7] was greater than 100 µM throughout.
For the molecule `CS(=O)(=O)c1ccc(/C=N/NC(N)=S)cc1`, the TGI in assay [8], in [1], in assay [2], in assay [3], in assay [4] and in assay [5] was greater than 100 µM each time. The concentration for total growth inhibition (TGI) in assay [6] and in [7] was greater than 100 µM each time.
Turning to `O=C1OC[C@@H]2[C@@H](O)CCCCCN12`, the concentration for total growth inhibition (TGI) in [1], in assay [2], in [3], in assay [4], in [5] and in assay [6] was greater than 100 µM each time. The molecule further displayed a TGI in assay [7] greater than 100 µM.
In the case of `COc1cc2c(cc1OC)-c1cc3ccccc3c[n+]1CC2`, the TGI in assay [1], in assay [2], in assay [3], in assay [4], in [5] and in assay [6] was greater than 100 µM each time. This molecule showed a TGI in [7] greater than 100 µM.
As usually defined, the GI50 is the concentration that inhibits growth by half. With `CCS(=O)(=O)N1CCC(C(C)n2c(C)c(C(=O)NCc3c(OC)cc(C)[nH]c3=O)c3ccccc32)CC1` (stereo not drawn), the GI50 in [1], in assay [3], in assay [4] and in assay [7] was greater than 100 µM each time. Also, the TGI in assay [1], in assay [3], in [4] and in assay [7] was greater than 100 µM in each case.
Take `COC1=C2CC(C)CC(OC)C(O)C(C)/C=C(\C)C(OC(N)=O)C(OC)/C=C\C=C(/C)C(=O)NC(=C(C=NC(C)(C)C)C1=O)C2=O` (stereo not drawn): the concentration for total growth inhibition (TGI) came out at 3.82 µM in assay [9]; 11.9 µM in [10]; 26 µM in [1]; 14.6 µM in assay [11]; 13.2 µM in assay [3]; 74.1 µM in assay [4]. The total growth inhibition concentration (TGI) amounted to 46.2 µM in assay [12], 17.6 µM in assay [6] and 40.5 µM in assay [7].
Consider `CC[C@]1(O)C[C@H]2CN(CCc3c([nH]c4ccccc34)[C@@](C(=O)OC)(c3cc4c(cc3OC)N(C=O)[C@H]3[C@@](O)(C(=O)OC)[C@H](OC(C)=O)[C@]5(CC)C=CCN6CC[C@]43[C@@H]65)C2)C1`, for which the total growth inhibition concentration (TGI) is 0.56 µM in assay [9]; 3.13 µM in assay [10]; 0.206 µM in assay [11]; 109 µM in assay [12]; 38.4 µM and 75.1 µM in assay [6]. Moreover, the values for the GI50 in assay [2] and in [7] were less than 0.001 µM and 0.476 µM, respectively.
Regarding `Cc1ccccc1C(=O)c1c(O)c2c(c(O)c1Br)CCCC2`, the TGI is 27.9 µM in [8]; 27.5 µM in assay [9]; 35.4 µM in assay [10]; 34.3 µM in assay [1]; 41.4 µM in assay [11]; 27.1 µM in assay [3]. Moreover, the concentration for total growth inhibition (TGI) in assay [4] stood at 34.6 µM; in assay [12], 47.5 µM; in assay [6], 29 µM; in assay [7], 31.7 µM.
In the case of `O=[N+]([O-])c1nc(-c2ccccn2)[nH]c1[N+](=O)[O-]`, the TGI in assay [9] was 38.9 µM; in assay [10] it was greater than 100 µM; in assay [1], greater than 100 µM; in assay [11] it was greater than 100 µM; in assay [3], greater than 100 µM; in [4], greater than 100 µM. Besides, the results for the total growth inhibition concentration (TGI) in assay [12], in [6] and in [7] were greater than 100 µM, 85.7 µM and greater than 100 µM, respectively.
Regarding `CCOC(=O)NC(Nc1ncccn1)(C(F)(F)F)C(F)(F)F`, the TGI in assay [1], in assay [2], in [3], in assay [4], in assay [6] and in assay [7] was greater than 100 µM in each case.
On to `NC(=O)c1nnc2ccc(F)cc2c1N`, for which the TGI in [8], in [1], in assay [2], in assay [3], in assay [4] and in assay [5] was greater than 100 µM in each case. For the same molecule, the TGI in [6] and in [7] was greater than 100 µM in each case.
On to `Nc1ncnc2c1ncn2C1OC(COP(=O)(O)O)C(O)C1O` (stereo not drawn), for which the concentration for total growth inhibition (TGI) in [9], in assay [10], in assay [1], in [11], in assay [3] and in assay [4] was greater than 50 µM each time. Besides, the TGI in assay [12], in assay [6] and in assay [7] was greater than 50 µM throughout.
Turning to `CC1(C)CCC[C@@]2(C)C1CCC1(C)C(CCc3ccoc3)/C(=C/OS(=O)(=O)O)CCC12` (stereo partly drawn) (tested in a mixture with another compound), the TGI in assay [8], in [9], in assay [10], in [1], in assay [11] and in assay [3] was greater than 100 µM each time. Moreover, the TGI in assay [4], in [12], in assay [6] and in [7] was greater than 100 µM throughout.
As to `C/C=C/[C@H]1O[C@@](O)([C@@H](C)[C@H](O)[C@H](C)[C@H]2OC(=O)/C(OC)=C/C(C)=C/[C@@H](C)[C@@H](O)[C@@H](CC)[C@@H](O)[C@H](C)C/C(C)=C/C=C/[C@@H]2OC)C[C@H](OC2CC(O)C(O)C(C)O2)[C@@H]1C` (stereo partly drawn), the concentration for total growth inhibition (TGI) is 2.92 µM in assay [8]; 11.8 µM in assay [1]; 12.2 µM in assay [2]; 6.27 µM in assay [3]; 15.1 µM in assay [4]; 9.48 µM in [5]. Further, the figures for the total growth inhibition concentration (TGI) in assay [6] and in assay [7] were 10.3 µM and 0.29 µM, respectively.
With `C=C(CN(C)C)C(=O)c1ccccc1C`, the TGI was 35.8 µM in [8]; 42.5 µM in [9]; 75.8 µM in [10]; greater than 100 µM in [1]; greater than 100 µM in [11]; greater than 58.7 µM in assay [3]. Further, the TGI in assay [4] was greater than 100 µM; in [12], greater than 100 µM; in assay [6], greater than 62.3 µM; in assay [7] it was greater than 69.2 µM.
Regarding `O=C(Nc1cccc(-n2ccc3c(NC(=O)c4ccccc4)nccc32)c1)c1ccc(N2CCOCC2)c(C(F)(F)F)c1`, the GI50 was 0.212 µM in assay [1]; 0.0233 µM in assay [3]; 0.188 µM in assay [4]; 0.0538 µM in [5]; 0.0414 µM in assay [6]; 0.0537 µM in assay [7]. In addition, the TGI in assay [1] is greater than 100 µM; in assay [3], 0.0504 µM; in assay [4], greater than 100 µM; in assay [5] it was greater than 100 µM; in assay [6], 22.5 µM; in assay [7], 37.8 µM.
For the molecule `O=C(O)c1cc2ccccc2c(N=Nc2ccccc2)c1O`, the TGI is greater than 100 µM in [8]; 96.6 µM in assay [1]; 58.4 µM in [2]; greater than 100 µM in assay [3]; greater than 100 µM in assay [4]; 60.1 µM in assay [5]. Moreover, the values for the total growth inhibition concentration (TGI) in assay [6] and in assay [7] were 35.2 µM and greater than 100 µM, respectively.
For `O=C(O)c1ccccc1NC(c1ccccc1)c1ccc2cccnc2c1O` (stereo not drawn), the TGI was 20.1 µM in [8]; greater than 47.5 µM in [1]; greater than 100 µM in assay [2]; 14.4 µM in assay [3]; 58 µM in assay [4]; greater than 88.8 µM in assay [5]. Further, the TGI is greater than 50 µM in [6] and 23.8 µM in [7].
In the case of `Fc1ccc2[nH]cc(-c3nc(-c4c[nH]c5ncccc45)cs3)c2c1`, the GI50 was 3.34 µM in assay [1], greater than 100 µM in [4], greater than 100 µM in assay [6] and 0.478 µM in assay [7]. The TGI in assay [1], in assay [4], in assay [6] and in assay [7] was greater than 100 µM each time.
